Results from paper PMC2844520 (The AAPS journal, 2010).

B1: Monoacylglycerol lipase (MAGL) (Mus musculus) (protein)
chain: MPEASSPRRTPQNVPYQDLPHLVNADGQYLFCRYWKPSGTPKALIFVSHGAGEHCGRYDELAHMLKGLDMLVFAHDHVGHGQSEGERMVVSDFQVFVRDVLQHVDTIQKDYPDVPIFLLGHSMGGAISILVAAERPTYFSGMVLISPLVLANPESASTLKVLAAKLLNFVLPNMTLGRIDSSVLSRNKSEVDLYNSDPLVCRAGLKVCFGIQLLNAVARVERAMPRLTLPFLLLQGSADRLCDSKGAYLLMESSRSQDKTLKMYEGAYHVLHRELPEVTNSVLHEVNSWVSHRIAAAGAGCPP

Experiments:
[1] = biological target: T1, Monoacylglycerol lipase (MAGL) (Mus musculus, UniProt O35678); test: inhibition of 3H-2-OG hydrolysis in MAGL-transfected COS-7 lysate; assay type: biochemical
T1 sequence (O35678 1-303): B1 chain

[2] = substrate: CCCCC/C=C\C/C=C\C/C=C\C/C=C\CCCC(=O)SCC(O)CO; assay type: biochemical, Mus musculus; settings: hydrolysis abolished by mutation of catalytic serine […] to alanine

Molecule | IC50 [1] | Km [2]
CCCCC/C=C\C/C=C\C/C=C\C/C=C\CCCCN1C(=O)C=CC1=O [NAM, N-arachidonyl maleimide] | 45.7 nM | –
B1 | – | 67.9 µM
